The values that follow come from ChEMBL document CHEMBL5724696, “Autophagy assay results for EUbOPEN Chemogenomics Library” (2024).

Where “and” joins values, the source holds several entries; their conditions need not be identical. Equal entries are not always repeated.

Experiment [1] has as its system U2OS. Description: (§1) Here: values are normalized to the positive (DMSO; basel flux = defined as 100% suppression) and negative (250nM Torin1; mTOR inhibitor; maximal inducer of autophagy defined as 0% suppression) control compounds and represented as % of ER-phagy suppression. […] The impact of autophagy induction on cells is complex and depends on the affected target. […] Of note, treatment concentrations may be sub-optimal for specific compounds, leading to false negative annotations. The experiment is classed as functional, Homo sapiens. Particulars: Compound Concentration 1 uM, Culturing Media DMEM, 1 % Penicillin/Streptomycin, 10% Fetal bovin serum Add-On: blasticidin, Screening Media Control DMEM, 10% Fetal bovin serum Add-On: 1 µg/ml Doxycyclin, Screening Media Samples DMEM.

Experiment [2] deals with U2OS. The description is as §1. The experiment is classed as functional, Homo sapiens. Conditions: Compound Concentration 1 uM, Culturing Media DMEM, 1 % Penicillin/Streptomycin, 10% Fetal bovin serum Add-On: blasticidin, Screening Media Control DMEM, 10% Fetal bovin serum Add-On: 1 µg/ml Doxycyclin, Screening Media Samples DMEM. This is another data set of the same source.

Where [3] appears, read: Timepoint 12 hours, 10% Fetal bovin serum Add-On: 1 µg/ml Doxycyclin 250nM Torin1.
Setting [4] is: Timepoint 24 hours, 10% Fetal bovin serum Add-On: 1 µg/ml Doxycyclin 250nM Torin1.
Where [5] appears, read: Timepoint 36 hours, 10% Fetal bovin serum Add-On: 1 µg/ml Doxycyclin 250nM Torin1.
[6] abbreviates: Timepoint 60 hours, 10% Fetal bovin serum Add-On: 1 µg/ml Doxycyclin 250nM Torin1.
The mark [7] stands for this setting: Timepoint 54 hours, 10% Fetal bovin serum Add-On: 1 µg/ml Doxycyclin 250nM Torin1.
Setting [8] is: Timepoint 12 hours, 10% Fetal bovin serum Add-On: 1 µg/ml Doxycyclin 250nM Torin1, 12 h, 1 µM.
[9] abbreviates: Timepoint 24 hours, 10% Fetal bovin serum Add-On: 1 µg/ml Doxycyclin 250nM Torin1, 24 h, 1 µM.
[10] abbreviates: Timepoint 36 hours, 10% Fetal bovin serum Add-On: 1 µg/ml Doxycyclin 250nM Torin1, 36 h, 1 µM.

Take `O=C1Nc2ccc(I)cc2/C1=C/c1cc(Br)c(O)c(Br)c1`: the ER-phagy suppression in the experiment on U2OS [1] (setting [3]) is -13.4504%; with U2OS [1] (setting [4]), -24.7924%; with U2OS [1] (setting [5]), -11.7006%; in the experiment on U2OS [1] (setting [6]), -13.1814%; in the experiment on U2OS [2] (setting [3]) it was -35.4464%; with U2OS [2] (setting [4]), -41.788%. Also, the ER-phagy suppression is given as -41.037% in the experiment on U2OS [2] (setting [5]) and -30.605% in the experiment on U2OS [2] (setting [7]).
As for `CCC(=O)Nc1cc(Nc2cc(NC3CC3)n3ncc(C#N)c3n2)ccc1C`, the ER-phagy suppression is 25.0893% and 12.0462% in the experiment on U2OS [1] (setting [8]); 43.9531% and 30.6203% in the experiment on U2OS [1] (setting [9]); 57.0471% and 46.34% with U2OS [1] (setting [10]); 65.9791% and 54.7573% in the experiment with U2OS [1] (Timepoint 60 hours, 10% Fetal bovin serum Add-On: 1 µg/ml Doxycyclin 250nM Torin1, 60 h, 1 µM); 67.8996% and 33.7182% with U2OS [2] (setting [8]); 72.4419% and 40.8117% in the experiment on U2OS [2] (setting [9]). The ER-phagy suppression in the experiment on U2OS [2] (setting [10]) was 80.6378% and 60.338%; with U2OS [2] (Timepoint 54 hours, 10% Fetal bovin serum Add-On: 1 µg/ml Doxycyclin 250nM Torin1, 54 h, 1 µM), 84.9565% and 68.6565%.
Consider `Cc1ccc(C(=O)Nc2cccc(C(F)(F)F)c2)cc1Nc1nc(-c2cccnc2)nc2c1cnn2C`, for which the ER-phagy suppression in the experiment on U2OS [1] (setting [3]) was 26.4951%; in the experiment with U2OS [1] (setting [4]), 22.3835%; with U2OS [1] (setting [5]), 22.4378%; in the experiment with U2OS [1] (setting [6]) it was 22.9955%; with U2OS [2] (setting [3]) it was 20.046%; in the experiment on U2OS [2] (setting [4]), 2.016%. Also, the ER-phagy suppression with U2OS [2] (setting [5]) is recorded as -6.3%; in the experiment with U2OS [2] (setting [7]) it was -2.2204%.
For the compound `CN1CCN(C(=O)C(C)(C)c2ccc(C(=O)Nc3cn4cc(-c5cc(C(C)(C)C)cc(C(C)(C)C)c5)ccc4n3)cc2)CC1` [T3-CLK-N], the ER-phagy suppression with U2OS [1] (setting [3]) is recorded as 2.466%; with U2OS [1] (setting [4]) it was 0.7117%; in the experiment with U2OS [1] (setting [5]), -6.9152%; in the experiment on U2OS [1] (setting [6]), -11.2006%; in the experiment on U2OS [2] (setting [3]), -1.207%; in the experiment with U2OS [2] (setting [4]), -16.3306%. In addition, the values for the ER-phagy suppression in the experiment with U2OS [2] (setting [5]) and with U2OS [2] (setting [7]) were -17.7073% and -17.4198%, respectively.
With `Cl.Cl.NC1(c2ccc(-c3nc4ccn5c(=O)[nH]nc5c4cc3-c3ccccc3)cc2)CCC1`, the ER-phagy suppression with U2OS [1] (setting [3]) was determined as 41.5267%; in the experiment with U2OS [1] (setting [4]), 48.6663%; with U2OS [1] (setting [5]), 54.9602%; in the experiment on U2OS [1] (setting [6]), 60.1398%; in the experiment on U2OS [2] (setting [3]), 6.566%; in the experiment with U2OS [2] (setting [4]), 12.3552%. In addition, the ER-phagy suppression in the experiment with U2OS [2] (setting [5]) is 31.5322%; with U2OS [2] (setting [7]), 46.784%.
On to `Cc1cnc(-c2cc(Cl)ccc2F)cc1-n1c(=O)n(CC(N)=O)c2cnccc21` [TP-008], for which the ER-phagy suppression was -1.571% with U2OS [1] (setting [3]); -13.0499% with U2OS [1] (setting [4]); -21.2168% with U2OS [1] (setting [5]); -35.4053% in the experiment with U2OS [1] (setting [6]); -24.3103% in the experiment on U2OS [2] (setting [3]); -37.6592% in the experiment on U2OS [2] (setting [4]). The ER-phagy suppression in the experiment on U2OS [2] (setting [5]) is -45.8786%; in the experiment on U2OS [2] (setting [7]), -56.4398%.
In the case of `O=c1cc(N2CCOCC2)oc2c(-c3cccc4c3sc3ccccc34)cccc12`, the ER-phagy suppression in the experiment with U2OS [1] (setting [3]) was 23.1915%; in the experiment with U2OS [1] (setting [4]) it was 21.6983%; in the experiment with U2OS [1] (setting [5]), 3.92%; in the experiment on U2OS [1] (setting [6]), -4.5%; in the experiment on U2OS [2] (setting [3]) it was 29.2209%; in the experiment on U2OS [2] (setting [4]) it was 24.7237%. In addition, the ER-phagy suppression is 22.7043% in the experiment with U2OS [2] (setting [5]) and 31.557% with U2OS [2] (setting [7]).
`C[C@@H](N)[C@H]1CC[C@H](C(=O)Nc2ccncc2)CC1.Cl.Cl`: the ER-phagy suppression with U2OS [1] (setting [3]) was -1.165%; in the experiment with U2OS [1] (setting [4]), -12.4028%; in the experiment on U2OS [1] (setting [5]), 0.04526%; with U2OS [1] (setting [6]), 2.669%; in the experiment with U2OS [2] (setting [3]) it was -40.2837%; in the experiment on U2OS [2] (setting [4]) it was -57.1688%. In addition, the values for the ER-phagy suppression in the experiment on U2OS [2] (setting [5]) and in the experiment with U2OS [2] (setting [7]) were -58.7515% and -55.2677%, respectively.
Take `Cn1ccc(Cn2cnc(-c3ccc(F)cc3)c2-c2ccnc3[nH]ccc23)n1`: the ER-phagy suppression with U2OS [1] (setting [3]) is -25.1326%; in the experiment on U2OS [1] (setting [4]), -19.5738%; in the experiment on U2OS [1] (setting [5]) it was 5.753%; with U2OS [1] (setting [6]), 8.035%; with U2OS [2] (setting [3]) it was 3.096%; with U2OS [2] (setting [4]), -2.866%. Also, the results for the ER-phagy suppression in the experiment with U2OS [2] (setting [5]) and in the experiment on U2OS [2] (setting [7]) were 1.074% and 6.853%, respectively.
In the case of `Nc1c(C(=O)NCc2ccc(C(=O)NCCCC3CCCCC3)cc2)cnn1-c1ccccc1` [SR-318], the ER-phagy suppression is given as -4.749% in the experiment on U2OS [1] (setting [3]); -10.9122% in the experiment with U2OS [1] (setting [4]); -18.8313% with U2OS [1] (setting [5]); -35.2993% with U2OS [1] (setting [6]); 18.9481% with U2OS [2] (setting [3]); 11.0125% in the experiment with U2OS [2] (setting [4]). The values for the ER-phagy suppression in the experiment with U2OS [2] (setting [5]) and in the experiment on U2OS [2] (setting [7]) were 12.9949% and 20.6922%, respectively.
For the compound `O=C(O)c1ccc2c(c1)nc(Nc1cccc(Cl)c1)c1ccncc12` [SILMITASERTIB], the ER-phagy suppression in the experiment with U2OS [1] (setting [3]) is recorded as -10.7244%; in the experiment on U2OS [1] (setting [4]) it was -5.006%; with U2OS [1] (setting [5]) it was 5.808%; in the experiment with U2OS [1] (setting [6]), 11.5407%; in the experiment on U2OS [2] (setting [3]) it was 22.7695%; with U2OS [2] (setting [4]), 17.6388%. Also, the ER-phagy suppression in the experiment on U2OS [2] (setting [5]) turned out to be 22.3356%; in the experiment with U2OS [2] (setting [7]), 12.8536%.
For the compound `O=C(O)c1ccc(-c2c[nH]c3ncc(-c4ccccc4)cc23)cc1C1CCCC1` [GSK-650394], the ER-phagy suppression is on record as -3.529% in the experiment with U2OS [1] (setting [3]); -12.5069% in the experiment on U2OS [1] (setting [4]); 3.383% with U2OS [1] (setting [5]); 9.397% in the experiment on U2OS [1] (setting [6]); 10.3251% in the experiment with U2OS [2] (setting [3]); -3.71% with U2OS [2] (setting [4]). In addition, the ER-phagy suppression in the experiment with U2OS [2] (setting [5]) is -12.9295%; in the experiment on U2OS [2] (setting [7]), -11.6174%.
For the compound `Cn1cc(C2=C(c3cn(C4CCN(Cc5ccccn5)CC4)c4ccccc34)C(=O)NC2=O)c2ccccc21` [ENZASTAURIN], the ER-phagy suppression is on record as 35.0144% in the experiment with U2OS [1] (setting [3]); 19.4915% with U2OS [1] (setting [4]); 15.6229% with U2OS [1] (setting [5]); 9.495% in the experiment with U2OS [1] (setting [6]); 5.0599% with U2OS [2] (setting [3]); -2.39% with U2OS [2] (setting [4]). Moreover, the values for the ER-phagy suppression with U2OS [2] (setting [5]) and in the experiment on U2OS [2] (setting [7]) were -11.3748% and -3.56%, respectively.
On to `CN1CCN(Cc2ccc(Nc3ncc(Cl)c(Nc4ccccc4S(=O)(=O)N(C)C)n3)cc2)CC1` [DUBERMATINIB], for which the ER-phagy suppression is listed as -20.0629% in the experiment with U2OS [1] (setting [3]); 4.178% in the experiment on U2OS [1] (setting [4]); 12.5384% with U2OS [1] (setting [5]); 29.2244% in the experiment on U2OS [1] (setting [6]); -2.878% with U2OS [2] (setting [3]); -1.86% in the experiment on U2OS [2] (setting [4]). Further, the ER-phagy suppression stood at 7.295% in the experiment with U2OS [2] (setting [5]) and 21.9101% in the experiment on U2OS [2] (setting [7]).
